Converted amounts (≈) assume the structure as drawn.
How the values were obtained:
[1] = Acute toxicity, intravenous administration to male BDF mice; format: in vivo, mouse; conditions: 3 mice per group
Source text: The compounds of the present invention were intravenously administered to male BDF mice in order to examine the acute toxicity (each group having 3 mice).

normal NIH3T3 cells [2] = conditions: 500 μg/ml, JP-A-1-110627; cited from earlier work
[3] = test system: NIH3T3 cells transformed with the activated ras gene; conditions: JP-A-1-110627, cited from earlier work
ras gene product p21 = assay: Expression of ras gene product p21 in revertant cells (Western blotting); format: cell-based; conditions: revertants isolated in Example 7, FIG. 2
Description: 2×10^6 portions of these cells were collected and each suspended in 1 ml of a buffer solution (100 mM NaCl, 20 mM Tris hydrochloride (pH 7.5), 5 mM MgCl2, 1% NonidetP-40 (polyoxyethylene(9)p-tert-octylphenol), 0.5% sodium deoxycholate, protease inhibitor) and then ground with a Potter homogenizer. After centrifuging at 3600 r.p.m. for 60 minutes, 10 μg portions of proteins were isolated from the supernatant by 12.5% polyacrylamide gel electrophoresis.
Then, the proteins in the gel were transferred into a nitrocellulose membrane and reacted with NCC-RAS-004, which was a monoclonal antibody for p21, at 4° C. for 24 hours to perform Western blotting. After reacting with rat Ig and ^125 I-Protein A, radioautography was performed.

OG56 (human lung cancer) = assay: Antitumor effect on human tumor cells (MTT assay), OG56; format: cell-based; conditions: same manner as Test Example 1
Description: (§1) The cells subcultured in a CO2 incubator were each suspended in an RPM1 medium or Dulbecco's modified MEM medium, supplemented with 10%(v/v) fetal serum so as to give a cell density of 5×10^4 cells/mi. To a 135 μl portion of the suspension was added each test compound shown in Table 1 followed by 3-day incubation in a CO2 incubator. After the incubation was completed, 50% inhibition concentration (IC50) was determined by the MTT assay (Igaku no Ayumi, 128, 733 (1984)).
(§2) The antitumor effects of the compounds of the present invention were evaluated in the same manner as in Test Example 1 except that various human tumor cells were employed. The HL60 cells, the CCRF-CCM cells and the QG5 cells are derived from human leukemia, human T cells and human lung cancer, respectively.

[4] = test system: MethA cells (solid cancer); assay: Antitumor effect on mouse tumor cells (MTT assay), MethA; format: cell-based; conditions: Meth-A, 72 h, 3-day incubation
Description: (§3) The P388 and L1210 cells are derived from mouse leukemia. The MethA cells, the 3LL cells and the B16 cells are derived from solid cancer, Lewis lung cancer and melanoma, respectively.
as §1

CCRFCEM (human T cells) = assay: Antitumor effect on human tumor cells (MTT assay), CCRFCEM; format: cell-based; conditions: CCRF-CEM, same manner as Test Example 1
Description: as §1, §2

[5] = test system: L1210 cells (mouse leukemia); assay: Antitumor effect on mouse tumor cells (MTT assay), L1210; format: cell-based; conditions: 72 h, 3-day incubation
Description: as §3, §1

[6] = test system: revertant cells transplanted onto BALB/C nude mice; assay: Carcinogenic ability of revertant cells on nude mouse; format: in vivo; conditions: revertants of Example 7, 3×10^5 cells
[7] = test system: NIH3T3 cells transformed with the activated ras gene; assay: Growth inhibition of NIH3T3 cells transformed with activated c-Ha-ras gene; format: cell-based, mouse; conditions: 40 μg/ml, 1st to 6th days, FIG. 1
Description: (§4) NIH3T3 cells transformed with the activated ras gene (Proc. Natl. Acad. Sci. USA, 81, 4771-4775 (1984)) and normal NIH3T3 cells were incubated in a Dulbecco-modified Eagle medium containing 5% bovine serum. The initial cell concentrations were adjusted to 1×10^4 cells/mi. The compound obtained in Example 3 was added to a concentration of 40 μg/ml and the cell numbers were counted with the lapse of time from the 1st to the 6th days.

B16 cells (melanoma) = assay: Antitumor effect on mouse tumor cells (MTT assay), B16; format: cell-based; conditions: 72 h, 3-day incubation
Description: as §3, §1

[8] = test system: NIH3T3 cells transformed with the activated c-Ha-ras gene; assay: Acquisition of revertant cells from transformed NIH3T3 cells, microscopic observation; format: cell-based, mouse; conditions: 40 μg/ml, 6 days
Description: (§5) NIH3T3 cells transformed with the activated c-Ha-ras gene and normal NIH3T3 cells were incubated for 6 days in the presence of 40 μg/ml of the compound obtained in Example 3 under the same conditions as in Example 6. The cells were microscopically observed in detail.

[9] = test system: P388 cells (mouse leukemia); assay: Antitumor effect on mouse tumor cells (MTT assay), P388; format: cell-based; conditions: 72 h, 3-day incubation
Description: as §3, §1

[10] = test system: HL60 cells (human leukemia); assay: Antitumor effect on human tumor cells (MTT assay), HL60; format: cell-based; conditions: HL-60, same manner as Test Example 1
Description: as §1, §2

normal NIH3T3 cells [11] = assay: Growth of normal NIH3T3 cells; format: cell-based, mouse; conditions: 40 μg/ml, 1st to 6th days, FIG. 1
Description: as §4

[12] = test system: 3LL cells (Lewis lung cancer); assay: Antitumor effect on mouse tumor cells (MTT assay), 3LL; format: cell-based; conditions: 72 h, 3-day incubation
Description: as §3, §1

normal NIH3T3 cells [13] = assay: Morphology of normal NIH3T3 cells, microscopic observation; format: cell-based, mouse; conditions: 40 μg/ml, 6 days
Description: as §5

[14] = Proceedings of 50th General Meeting of Japan Society of Cancer, 1991; cited from earlier work

**Q.** For `N=C1C=CCC(C(=O)O)N1` (stereo not drawn) [Compound of Ex. 4], which “Survival dose (doses causing no death)” value [1] is on record?
**A.** The value was 600 mg/kg.

**Q.** With `N[C@@H](Cc1ccc(O)cn1)C(=O)O` [azatyrosine, L-β-(5-hydroxy-2-pyridyl)alanine] as the compound, how does the “growth inhibition of normal NIH3T3 cells (azatyrosine)” value (normal NIH3T3 cells [2]) read?
**A.** The value was “never inhibited the growth”.

**Q.** What about the “growth inhibition of NIH3T3 cells transformed with the activated ras gene (azatyrosine)” value ([3]; 500 μg/ml) of the same compound?
**A.** Its value is “selectively inhibited the growth”.

**Q.** What about the “nature of cells surviving after treatment with azatyrosine” value [3] of the same compound?
**A.** The value was “revertant cells”.

**Q.** For `O=C(O)[C@@H]1CC=CC(=S)N1` [Compound of Ex. 3], which “expression of activated p21 in revertants” value (ras gene product p21) is on record?
**A.** The value was “the activated p21 was expressed in the revertants”.

**Q.** What about the IC50 (OG56 (human lung cancer)) of the same compound?
**A.** Its IC50 is 70 µg/mL (≈ 445 µM).

**Q.** And the IC50 [4]?
**A.** Its IC50 is 11 µg/mL (≈ 70 µM).

**Q.** And the IC50 (CCRFCEM (human T cells))?
**A.** The IC50 was 20 µg/mL (≈ 127 µM).

**Q.** And the IC50 [5]?
**A.** Its IC50 is 9 µg/mL (≈ 57.3 µM).

**Q.** And the “Survival dose (doses causing no death)” value [1]?
**A.** Its value is 800 mg/kg.

**Q.** What about the “tumor formation by revertants on nude mice” value [6] of the same compound?
**A.** Its value is “scarcely induced tumor formation”.

**Q.** What about the “growth inhibition of NIH3T3 cells transformed with the activated ras gene” value [7] of the same compound?
**A.** The value was “inhibited the growth”.

**Q.** And the IC50 (B16 cells (melanoma))?
**A.** The IC50 was 45 µg/mL (≈ 286 µM).

**Q.** What about the “death of transformed NIH3T3 cells” value [8] of the same compound?
**A.** Its value is “partially died”.

**Q.** And the “revertants among surviving transformed NIH3T3 cells (morphology)” value [8]?
**A.** The value was “revertants which were flat and had nuclei and nucleoli morphologically similar to the normal NIH3T3 cells”.

**Q.** And the IC50 [9]?
**A.** The IC50 was 5 µg/mL (≈ 31.8 µM).

**Q.** What about the IC50 [10] of the same compound?
**A.** The IC50 was 20 µg/mL (≈ 127 µM).

**Q.** And the “growth of normal NIH3T3 cells” value (normal NIH3T3 cells [11])?
**A.** Its value is “continued to grow”.

**Q.** And the IC50 [12]?
**A.** Its IC50 is 11 µg/mL (≈ 70 µM).

**Q.** And the “morphological change of normal NIH3T3 cells” value (normal NIH3T3 cells [13])?
**A.** The value was “no morphological change”.

**Q.** With `N=C1C=CC[C@@H](C(=O)O)N1` [SF2698] as the compound, how does the IC50 (OG56 (human lung cancer)) read?
**A.** The IC50 was 80 µg/mL (≈ 571 µM).

**Q.** And the IC50 [4]?
**A.** The IC50 was 46 µg/mL (≈ 328 µM).

**Q.** And the IC50 (CCRFCEM (human T cells))?
**A.** Its IC50 is 45 µg/mL (≈ 321 µM).

**Q.** What about the IC50 [5] of the same compound?
**A.** The IC50 was 65 µg/mL (≈ 464 µM).

**Q.** What about the “Survival dose (doses causing no death)” value [1] of the same compound?
**A.** Its value is 300 mg/kg.

**Q.** What about the IC50 (B16 cells (melanoma)) of the same compound?
**A.** The IC50 was 41 µg/mL (≈ 293 µM).

**Q.** And the IC50 [9]?
**A.** The IC50 was 120 µg/mL (≈ 856 µM).

**Q.** And the IC50 [10]?
**A.** The IC50 was 45 µg/mL (≈ 321 µM).

**Q.** What about the antitumor activity [14] of the same compound?
**A.** Its antitumor activity is “has an antitumor activity”.

**Q.** And the IC50 [12]?
**A.** Its IC50 is 51 µg/mL (≈ 364 µM).

**Q.** Which results are given for `O=C1C=CC[C@@H](C(=O)O)N1` [Compound of Ex. 1]?
**A.** IC50 (OG56 (human lung cancer)): 180 µg/mL (≈ 1280 µM); IC50 [4]: 100 µg/mL (≈ 709 µM); IC50 (CCRFCEM (human T cells)): 90 µg/mL (≈ 638 µM); IC50 [5]: 130 µg/mL (≈ 921 µM); Survival dose (doses causing no death) [1]: 1000 mg/kg; IC50 (B16 cells (melanoma)): 90 µg/mL (≈ 638 µM); IC50 [9]: 200 µg/mL (≈ 1420 µM); IC50 [10]: 90 µg/mL (≈ 638 µM); IC50 [12]: 100 µg/mL (≈ 709 µM)

From patent US5334723A, “2-piperidinecarboxylic acid derivative, oncogene suppressor and agent for obtaining revertants” (Meiji Seika Kaisha, Ltd., priority 1991, dated 1994)
